These compounds were tested against T1, DNA polymerase theta (POLQ) (2-894) (assay: ATPase Assay).
T1 construct: 2-894
Experimental: POLθ-mediated ATP hydrolysis was measured using the ADP-Glo Kinase Assay (Promega Corporation, Madison, WI). Reactions were performed in white 384-well small-volume microplates (Greiner Bio-One, Frickenhausen, Germany) using a total volume of 15 μL. The ATPase reaction consisted of 1 nM biotinylated Avi-POLθ[2-894], 5 nM of a 50 nucleotide poly-thymine repeat single-stranded DNA (PolyT(50) ssDNA), and 100 μM ATP in 5 μL of assay buffer (50 mM Tris, pH 7.5, 80 mM KCl, 10 MgCl2, 1 mM DTT, 5% glycerol, 0.01% BSA, 0.01% Tween-20). Inhibition of POLΘATPase activity was determined by preparing 11-point serial dilutions of the test compounds in 100% DMSO, then transferring 30 nL of the compounds into the ATPase reaction using an Echo acoustic liquid handler (Beckman Coulter, Brea, CA). DMSO-treated wells containing either all of the reaction components (1 nM biotinylated Avi-POLθ[2-894], 5 nM PolyT(50) ssDNA, 100 μM ATP) or with assay buffer substituted for the biotinylated Avi-POLθ[2-894](0 nM biotinylated Avi-POLθ[2-894], 5 nM PolyT(50) ssDNA, 100 μM ATP) were used to define the maximum and minimum response in the assay. Following a one-hour incubation at ambient temperature, 5 μL of ADP-Glo Reagent was added to the ATPase reaction, and this mixture was allowed to incubate at ambient temperature for an additional hour. Lastly, 5 μL of Kinase Detection Reagent was added, followed by a third one-hour incubation at ambient temperature. The reagent concentrations listed represent the amounts only in the 5 μL ATPase reaction volume.

Row | SMILES | IC50 [nM]
1 | COc1ncc(Cl)cc1-c1cc(C)ncc1C(=O)Nc1nc2c(s1)CN(C(=O)c1cccc(C(F)F)n1)C2 [US20250230171, Compound 539] | 32.5
2 | COc1cnc(Cl)cc1-c1cc(C)ncc1C(=O)Nc1nc2c(s1)CN(C(=O)c1nccnc1C)C2 [US20250230171, Compound 520] | 8
3 | COc1cnc(Cl)cc1-c1cc(C)ncc1C(=O)Nc1nc2c(s1)CN(C(=O)c1cnc(C)n1C)C2 [US20250230171, Compound 546] | 100
4 | COc1cnc(C(=O)N2Cc3nc(NC(=O)c4cnc(C)cc4-c4cc(Cl)ncc4OC)sc3C2)c(OC)n1 [US20250230171, Compound 440] | 8
5 | COc1cnc(Cl)cc1-c1cc(C)ncc1C(=O)Nc1nc2c(s1)CN(C(=O)c1cccn3cncc13)C2 [US20250230171, Compound 462] | 8
6 | COc1cnc(Cl)cc1-c1cc(C)ncc1C(=O)Nc1nc2c(s1)CN(C(=O)c1ccc(C(F)F)nc1OC)C2 [US20250230171, Compound 384] | 8
7 | COc1cnc(Cl)cc1-c1cc(C)ncc1C(=O)Nc1nc2c(s1)CN(C(=O)c1ccc(OC)c3cncn13)C2 [US20250230171, Compound 502] | 8
8 | COc1cnc(Cl)cc1-c1cc(C)ncc1C(=O)Nc1nc2c(s1)CN(C(=O)c1ncc(C(F)F)cn1)C2 [US20250230171, Compound 400] | 8
9 | COc1ccc(C#N)cc1-c1cc(C)ncc1C(=O)Nc1nc2c(s1)CN(C(=O)c1cccc(C(F)F)n1)C2 [US20250230171, Compound 538] | 32.5
10 | COc1cnc(Cl)cc1-c1cc(C)ncc1C(=O)Nc1nc2c(s1)CN(C(=O)C1CC13CC3)C2 (racemic) [US20250230171, Compound 535] | 32.5
11 | COc1cnc(Cl)cc1-c1cc(C)ncc1C(=O)Nc1nc2c(s1)CN(C(=O)c1ncc(C(C)(F)F)cc1Cl)C2 [US20250230171, Compound 501] | 8
12 | COc1cnc(Cl)cc1-c1cc(C)ncc1C(=O)Nc1nc2c(s1)CN(C(=O)c1ncncc1OC)C2 [US20250230171, Compound 514] | 8
13 | COc1cnc(Cl)cc1-c1cc(C)ncc1C(=O)Nc1nc2c(s1)CN(C(=O)c1cnc(C(F)F)cc1C)C2 [US20250230171, Compound 466] | 8
14 | COc1cnc(Cl)cc1-c1cc(C)ncc1C(=O)Nc1nc2c(s1)CN(C(=O)c1c(C)ncn1C)C2 [US20250230171, Compound 476] | 8
15 | COc1cnc(Cl)cc1-c1cc(C)ncc1C(=O)Nc1nc2c(s1)CN(C(=O)c1cnc(C)c(C)n1)C2 [US20250230171, Compound 416] | 8
16 | COc1ccc2oc(C(=O)N3Cc4nc(NC(=O)c5cnc(C)cc5-c5cc(Cl)ncc5OC)sc4C3)nc2c1 [US20250230171, Compound 472] | 8
17 | COc1cnc(Cl)cc1-c1cc(C)ncc1C(=O)Nc1nc2c(s1)CN(C(=O)c1ccc(C(F)F)c(F)c1)C2 [US20250230171, Compound 403] | 8
18 | COc1cnc(Cl)cc1-c1cc(C)ncc1C(=O)Nc1nc2c(s1)CN(C(=O)c1cccnc1Cl)C2 [US20250230171, Compound 524] | 8
19 | COc1ccc(C(=O)N2Cc3nc(NC(=O)c4cnc(C)cc4-c4cc(C#N)ccc4OC)sc3C2)c(Cl)c1 [US20250230171, Compound 516] | 8
20 | COc1cnc(Cl)cc1-c1cc(C)ncc1C(=O)Nc1nc2c(s1)CN(C(=O)c1c(C#N)cnn1C)C2 [US20250230171, Compound 515] | 8
21 | COc1ncc(Cl)c(C(=O)N2Cc3nc(NC(=O)c4cnc(C)cc4-c4cc(Cl)ncc4OC)sc3C2)n1 [US20250230171, Compound 481] | 8
22 | COc1ccc(C#N)cc1-c1cc(C)ncc1C(=O)Nc1nc2c(s1)CN(C(=O)c1ccc(C(F)F)cc1Cl)C2 [US20250230171, Compound 519] | 8
23 | COc1cnc(Cl)cc1-c1cc(C)ncc1C(=O)Nc1nc2c(s1)CN(C(=O)c1nc(C(F)F)ccc1OC)C2 [US20250230171, Compound 415] | 8
24 | COc1ccc(C#N)cc1-c1cc(C)ncc1C(=O)Nc1nc2c(s1)CN(C(=O)c1cc(C(F)F)ccc1F)C2 [US20250230171, Compound 433] | 8
25 | COc1cnc(Cl)cc1-c1cc(C)ncc1C(=O)Nc1nc2c(s1)CN(C(=O)c1nc(Cl)ccc1C)C2 [US20250230171, Compound 450] | 8
26 | COc1cnc(Cl)cc1-c1cc(C)ncc1C(=O)Nc1nc2c(s1)CN(C(=O)c1cc(C)nc(C(F)F)n1)C2 [US20250230171, Compound 530] | 8
27 | COc1ccc(C#N)cc1-c1cc(C)ncc1C(=O)Nc1nc2c(s1)CN(C(=O)c1ccc(OC(F)F)cc1)C2 [US20250230171, Compound 503] | 8

Row | SMILES | IC50 [nM]
28 | COc1cnc(Cl)cc1-c1cc(C)ncc1C(=O)Nc1nc2c(s1)CN(C(=O)C1CC3(CC(F)C3)C1)C2 (stereo not drawn) [US20250230171, Compound 473] | 8
29 | COc1cnc(Cl)cc1-c1cc(C)ncc1C(=O)Nc1nc2c(s1)CN(C(=O)C1CC3(CC(OC(F)F)C3)C1)C2 (stereo not drawn) [US20250230171, Compound 456] | 8
30 | COc1cnc(Cl)cc1-c1cc(C)ncc1C(=O)Nc1nc2c(s1)CN(C(=O)c1ccc(OC(F)F)nc1)C2 [US20250230171, Compound 32] | 8
31 | COc1cnc(Cl)cc1-c1cc(C)ncc1C(=O)Nc1nc2c(s1)CN(C(=O)c1ccc(C(F)F)cc1F)C2 [US20250230171, Compound 382] | 8
32 | COc1cnc(Cl)cc1-c1cc(C)ncc1C(=O)Nc1nc2c(s1)CN(C(=O)c1ccc(C(F)F)nn1)C2 [US20250230171, Compound 454] | 8
33 | COc1cnc(Cl)cc1-c1cc(C)ncc1C(=O)Nc1nc2c(s1)CN(C(=O)c1cnn(C(F)(F)F)c1)C2 [US20250230171, Compound 513] | 8
34 | COc1cnc(Cl)cc1-c1cc(C)ncc1C(=O)Nc1nc2c(s1)CN(C(=O)c1nn(C)cc1F)C2 [US20250230171, Compound 435] | 8
35 | COc1cnc(Cl)cc1-c1cc(C)ncc1C(=O)Nc1nc2c(s1)CN(C(=O)C1CCCC(OC(F)(F)F)C1)C2 (racemic) [US20250230171, Compound 485] | 8
36 | COc1cnc(Cl)cc1-c1cc(C)ncc1C(=O)Nc1nc2c(s1)CN(C(=O)c1nc(C)c(C)o1)C2 [US20250230171, Compound 529] | 8
37 | COc1cnc(Cl)cc1-c1cc(C)ncc1C(=O)Nc1nc2c(s1)CN(C(=O)c1ncccc1Cl)C2 [US20250230171, Compound 459] | 8
38 | COc1cnc(Cl)cc1-c1cc(C)ncc1C(=O)Nc1nc2c(s1)CN(C(=O)c1ccc(C(F)F)c(Cl)c1)C2 [US20250230171, Compound 381] | 8
39 | COc1cnc(Cl)cc1-c1cc(C)ncc1C(=O)Nc1nc2c(s1)CN(C(=O)c1cc(Cl)cnc1OC)C2 [US20250230171, Compound 486] | 8
40 | COc1cnc(Cl)cc1-c1cc(C)ncc1C(=O)Nc1nc2c(s1)CN(C(=O)c1cccc3nccn13)C2 [US20250230171, Compound 455] | 8
41 | COc1cnc(Cl)cc1-c1cc(C)ncc1C(=O)Nc1nc2c(s1)CN(C(=O)C1CC3(CC(C#N)C3)C1)C2 (stereo not drawn) [US20250230171, Compound 532] | 8
42 | COc1cnc(Cl)cc1-c1cc(C)ncc1C(=O)Nc1nc2c(s1)CN(C(=O)C1CC3(CC(C)C3)C1)C2 (stereo not drawn) [US20250230171, Compound 418] | 8
43 | COc1cnc(Cl)cc1-c1cc(C)ncc1C(=O)Nc1nc2c(s1)CN(C(=O)c1ccnc(C(F)(F)F)n1)C2 [US20250230171, Compound 443] | 8
44 | COc1cnc(Cl)cc1-c1cc(C)ncc1C(=O)Nc1nc2c(s1)CN(C(=O)c1nc(C)ccc1Cl)C2 [US20250230171, Compound 498] | 8
45 | COc1cnc(Cl)cc1-c1cc(C)ncc1C(=O)Nc1nc2c(s1)CN(C(=O)c1ncc(Cl)cc1C(C)(F)F)C2 [US20250230171, Compound 595] | 8
46 | COc1ccc(C#N)cc1-c1cc(C)ncc1C(=O)Nc1nc2c(s1)CN(C(=O)c1cccc(Cl)c1OC)C2 [US20250230171, Compound 422] | 8
47 | COc1cnc(Cl)cc1-c1cc(C)ncc1C(=O)Nc1nc2c(s1)CN(C(=O)c1ccc(F)c(Cl)n1)C2 [US20250230171, Compound 411] | 8
48 | COc1cnc(Cl)cc1-c1cc(C)ncc1C(=O)Nc1nc2c(s1)CN(C(=O)c1nc(C)ncc1Cl)C2 [US20250230171, Compound 479] | 8
49 | COc1cnc(Cl)cc1-c1cc(C)ncc1C(=O)Nc1nc2c(s1)CN(S(=O)(=O)c1ccccn1)C2 [US20250230171, Compound 507] | 8
50 | COc1cnc(Cl)cc1-c1cc(C)ncc1C(=O)Nc1nc2c(s1)CN(C(=O)c1nccnc1OC)C2 [US20250230171, Compound 437] | 8
51 | COc1cnc(Cl)cc1-c1cc(C)ncc1C(=O)Nc1nc2c(s1)CN(C(=O)c1nn(C)cc1N)C2 [US20250230171, Compound 458] | 8
52 | COc1cnc(Cl)cc1-c1cc(C)ncc1C(=O)Nc1nc2c(s1)CN(C(=O)c1ncc(C(F)F)cc1OC)C2 [US20250230171, Compound 412] | 8
53 | COc1cnc(Cl)cc1-c1cc(C)ncc1C(=O)Nc1nc2c(s1)CN(C(=O)c1nc(C)ncc1OC)C2 [US20250230171, Compound 493] | 8
